Measurements as given in patent publication US20260199325A1, “NOVEL SUBSTITUTED PYRAZINE-CARBOXAMIDE-IMIDAZOPYRIDINE DERIVATIVES” (Boehringer Ingelheim International GmbH, priority 2022, published 2026).

Molecular target: T1, human metabotropic Glutamate 4 receptor (Homo sapiens, UniProt Q14833)
T1 construct: expressed in transfected cells; host or cells: HEK293
Test: In vitro testing of mGluR4 potency (Assay A), cAMP HTRF in HEK293 cells
Assay type: cell-based
Conditions: for IC50: HEK293 cell overexpressing human mGluR4, 10 uM L-Glutamic acid, 1 uM forskolin
Description: A. In Vitro Testing of mGluR4 Potency
The in vitro activity of the compounds according to the invention may be investigated as follows:
The HEK293 cell overexpressing the human metabotropic Glutamate 4 receptor were thawed at 37° C. and immediately diluted with cell culture medium. After centrifugation, the cell pellet is re-suspended in medium and then distributed from a stirred spinner flask into the wells of the assay plate. The plates are incubated for one hour at room temperature before they are incubated for 24 hours at 37° C./5% C02. After washing the cells in the plate three times with 80 uL HBSS/HEPES buffer (10 uL buffer remained in the wells after washing), 5 uL per well of compounds diluted in HBSS/HEPES buffer containing 0.2% BSA (final concentration: 0.1%) and 1 mM IBMX (final concentration: 0.5 mM) are added to the wells of the assay plate. Thereafter 5 uL per well of L-Glutamic acid (final concentration: 10 uM), forskolin (final concentration: 1 uM) and 1 mM IBMX (final concentration: 0.5 mM) dissolved in HBSS/HEPES buffer containing 0.2% BSA (final concentration: 0.1%) are added to the assay plate (final DMSO concentration: 1%). Several wells of the assay plate are used either for the positive and the negative controls or for the cAMP standard curve. The assay plate is incubated for 30 minutes at room temperature. Then 5 ul per well of Anti-cAMP-Antibody-d2 solution and 5 ul per well of cAMP-Europium Cryptate dilution are added to all wells of the plate and the plate is incubated another 60 minutes light protected at room temperature. The emission at 615 nm and 665 nm (Excitation wavelength: 320 nm) are measured on the EnVision™ reader (PerkinElmer). The ratio between the emission at 665 nm and 615 is calculated by the reader. The whole assay is performed in the dark or under green light.
The cAMP standard is prepared by diluting the cAMP stock solution with HBSS/Hepes buffer: 5 μl/well of the cAMP dilutions (in HBSS/Hepes buffer containing 1 mM IBMX and 0.2% BSA-final concentration: 0.5 mM IBMX and 0.1% BSA) are added to 10 ul/well HBSS/Hepes buffer plus 5 ul/well 4% DMSO in HBSS/Hepes containing 0.2% BSA (final DMSO concentration: 1%-like in the wells containing compounds) in the wells of the assay plate. The final cAMP concentrations in the assay plate were: 0, 0.17, 0.69, 2.78, 11.1, 44.5, 178, and 712 nM (two wells/cAMP concentration).
Each assay microtiter plate contained also wells with vehicle controls instead of compound as controls for L-Glutamic acid induced signal (negative control; 100% CTL; 10 uM L-Glutamic acid+1 uM forskolin+0.5 mM IBMX+1% DMSO) and wells with vehicle controls without L-Glutamic acid as controls for non-specific changes in signal (positive control; 0% CTL; 0 uM L-Glutamic acid+1 uM forskolin+0.5 mM IBMX+1% DMSO).
The analysis of the data is performed by the calculation the ratio between the emission at 665 nm and the emission at 615 nm (Em665/Em615 ratio). Thereafter the signals of the compounds are normalized using the positive and negative controls by the following formula:
PoC=100×((Signal Sample−Positive Control)/(Negative Control−Positive Control))

T1 sequence (Q14833 33-912): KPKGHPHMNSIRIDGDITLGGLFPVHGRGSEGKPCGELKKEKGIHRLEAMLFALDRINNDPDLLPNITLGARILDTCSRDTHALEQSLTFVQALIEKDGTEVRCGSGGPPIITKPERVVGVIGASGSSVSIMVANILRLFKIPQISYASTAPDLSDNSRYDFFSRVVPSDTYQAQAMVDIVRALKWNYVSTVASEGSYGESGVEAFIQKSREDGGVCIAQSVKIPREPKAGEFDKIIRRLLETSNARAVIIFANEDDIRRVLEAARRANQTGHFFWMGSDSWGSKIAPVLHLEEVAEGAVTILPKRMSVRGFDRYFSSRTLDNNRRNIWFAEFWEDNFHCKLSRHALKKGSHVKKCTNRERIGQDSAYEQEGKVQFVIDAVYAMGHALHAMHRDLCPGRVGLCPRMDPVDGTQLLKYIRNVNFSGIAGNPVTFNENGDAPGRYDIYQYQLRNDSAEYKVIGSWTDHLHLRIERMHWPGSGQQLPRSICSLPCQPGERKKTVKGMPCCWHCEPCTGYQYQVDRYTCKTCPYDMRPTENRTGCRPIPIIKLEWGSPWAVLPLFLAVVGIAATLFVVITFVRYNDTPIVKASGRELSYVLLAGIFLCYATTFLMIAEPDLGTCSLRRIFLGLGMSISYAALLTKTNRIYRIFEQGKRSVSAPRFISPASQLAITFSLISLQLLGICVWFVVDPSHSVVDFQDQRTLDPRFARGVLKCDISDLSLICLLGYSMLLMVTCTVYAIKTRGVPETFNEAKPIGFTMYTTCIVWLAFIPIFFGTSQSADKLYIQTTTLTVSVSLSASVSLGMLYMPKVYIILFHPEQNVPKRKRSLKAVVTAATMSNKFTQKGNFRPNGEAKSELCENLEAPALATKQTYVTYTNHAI

| SMILES | IC50 (Table 2) [nM] | activity as mGluR4 modulators in Assay A (in words) | IC50 (Table 1) [nM] |
| --- | --- | --- | --- |
| CCn1c([C@@H](NC(=O)c2cnc(C)cn2)C2CC2)nc2cc(C(F)(F)F)ncc21 [Example 47, N-[(S)-cyclopropyl[3-ethyl-6-(trifluoromethyl)-3H-imidazo[4,5-c]pyridin-2-yl]methyl]-5-methylpyrazine-2-carboxamide] | 41 |  |  |
| CCn1c([C@@H](NC(=O)c2cnc(C(F)F)cn2)C2CC2)nc2cc(C(F)(F)F)ncc21 [Example 48, N-[(S)-cyclopropyl[3-ethyl-6-(trifluoromethyl)-3H-imidazo[4,5-c]pyridin-2-yl]methyl]-5-(difluoromethyl)pyrazine-2-carboxamide] | 48 |  |  |
| Cn1nccc1C(=O)N[C@H](c1nc2ccc(Br)nc2[nH]1)[C@H]1CC[C@H](C)CC1 [Intermediate 213 in WO2019/138017 (regioisomere 2), reference compound] |  | no therapeutically relevant activity | 13200 |

Continued by falling IC50 (Table 2), values first:

| IC50 (Table 2) [nM] | activity as mGluR4 modulators in Assay A (in words) | IC50 (Table 1) [nM] | SMILES |
| --- | --- | --- | --- |
| 80 |  |  | Cc1cnc(C(=O)N[C@H](c2nc3cnc(C(F)(F)F)cc3n2C(C)C)[C@@H]2COCCO2)cn1 [Example 50, N-[(R)-[(2R)-1,4-dioxan-2-yl][1-(propan-2-yl)-6-(trifluoromethyl)-1H-imidazo[4,5-c]pyridin-2-yl]methyl]-5-methylpyrazine-2-carboxamide] |
| 53 |  |  | CCn1c([C@@H](NC(=O)c2cnc(C(F)F)cn2)C2CC2)nc2cnc(C(F)(F)F)cc21 [Example 49, N-[(S)-cyclopropyl[1-ethyl-6-(trifluoromethyl)-1H-imidazo[4,5-c]pyridin-2-yl]methyl]-5-(difluoromethyl)pyrazine-2-carboxamide] |
